The values that follow come from paper PMC12629169, “Antiaging, Wound‐Healing Properties and Chemical Characterization of Crude Hydroalcoholic Extract and Fractions of Myrcia neoobscura” (Chemistry & Biodiversity, 2025).

What is called IC50 is the concentration that inhibits the measured activity by half. A low value points to inhibition by little substance.

The target in the test is T1, collagenase.
T1 construct: gene colG
Put plainly: ninhydrin colorimetric gelatin hydrolysis. It counts as biochemical. To be noted: gelatin substrate, Tris-HCl pH 7.5, 5 mM CaCl2, 1 µM ZnCl2, 37°C.

≈ marks a conversion by molar mass, not a printed value.

In turn, `O=C(O)c1cc(O)c(O)c(O)c1` [compound 1, gallic acid] registered an IC50 of 108.88 ± 12.71 µg/mL (≈ 640 µM).
